Experimental data from publication PMC11859264, “Discovery of a Novel Multitarget Analgesic Through an In Vivo-Guided Approach” (Pharmaceuticals, 2025).

Key:
[1] = target: T1, Transporter, Norepinephrine (NET) (Homo sapiens, UniProt P23975); assay: Radioligand binding, [125I] RTI-55, Eurofins
T1 construct: host or cells: MDCK cells

hERG = hERG (Homo sapiens, UniProt Q12809); assay: biochemical
CYP3A4 = CYP3A4 (Homo sapiens, UniProt P08684); assay: in vitro; conditions: microsomes, pH 7.4
Cytotoxicity assay (MTT) = type: cell-based; conditions: mouse, HT-22 hippocampal neuronal cells, HT-22 cells, read-out: cell viability relative to the untreated control group
Description: In the in vitro toxicity study, we initially evaluated the cytotoxic potential of compound 29 using a hippocampal neuronal cell line (HT-22), a commonly used model for assessing neurotoxicity. Cell viability was determined after exposure to compound 29 at a concentration of 10 μM.
HT-22 (mouse hippocampal cells) were cultured in Dulbecco’s Modified Eagle’s Medium (DMEM, GIBCO) supplemented with 10% (v/v) fetal bovine serum and antibiotics (100 µg/mL penicillin/streptomycin mix) in a humidified atmosphere at 37 °C with 5% CO2. A total of 5000 HT-22 cells per well were seeded into a clear 96-well plate one day prior to the assay. On the day of the experiment, the medium was removed, and the cells were treated with 25 µL of each compound at a concentration of 10 µM. The plates were incubated at 37 °C for 18 h. Subsequently, 15 µL of 3-[4,5-dimethylthiazol-2-yl]-2,5-diphenyltetrazolium bromide (MTT) solution (5 mg/mL) was added to each well, and the plates were incubated for an additional 3 h. The resulting formazan crystals were dissolved in dimethyl sulfoxide (DMSO), and the absorbance at 570 nm was measured using a microplate reader (Sunrise, TECAN). Optical density (OD) values from each well were normalized by subtracting the vehicle control, and cell viability was calculated by considering the signal from the vehicle control as 100%.

Adrenergic α2A = target: T2, Adrenergic α2A (Homo sapiens, UniProt P08913); assay: Radioligand binding, [3H] Rauwolscine, Eurofins
T2 sequence (P08913 1-465): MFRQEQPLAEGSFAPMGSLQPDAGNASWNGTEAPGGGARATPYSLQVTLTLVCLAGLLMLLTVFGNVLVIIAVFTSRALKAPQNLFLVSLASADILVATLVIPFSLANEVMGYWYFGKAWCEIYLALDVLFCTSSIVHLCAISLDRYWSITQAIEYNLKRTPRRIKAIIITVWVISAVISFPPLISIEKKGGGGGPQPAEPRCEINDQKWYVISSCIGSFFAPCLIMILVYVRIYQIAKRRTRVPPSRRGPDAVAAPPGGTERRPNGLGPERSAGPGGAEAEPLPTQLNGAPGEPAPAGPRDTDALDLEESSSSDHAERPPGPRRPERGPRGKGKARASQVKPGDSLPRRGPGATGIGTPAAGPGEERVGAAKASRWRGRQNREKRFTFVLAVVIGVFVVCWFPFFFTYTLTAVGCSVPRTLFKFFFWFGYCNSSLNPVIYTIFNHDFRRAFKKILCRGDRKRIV

[2] = target: T3, Transporter, Dopamine (DAT) (Homo sapiens, UniProt Q01959); assay: Radioligand binding, [125I] RTI-55, Eurofins
T3 construct: host or cells: CHO-S cells

[3] = target: T4, Transporter, Serotonin (SERT) (Homo sapiens, UniProt P31645); assay: Radioligand binding, [3H] Paroxetine, Eurofins
T4 construct: host or cells: HEK-293 cells

Serotonin 5-HT2A = Serotonin 5-HT2A (Homo sapiens, UniProt P28223); assay: Radioligand binding, [3H] Ketanserin, Eurofins
Dopamine D2L = target: T5, Dopamine D2L (Homo sapiens, UniProt P14416); assay: Radioligand binding, [3H] Spiperone, Eurofins
T5 construct: host or cells: CHO cells

formalin model = assay: Formalin test in mice (primary in vivo screening and ED50); design: species or system ICR male mice
Description: For primary screening, the synthesized compounds were administered to mice via intraperitoneal injection at a dose of 5 mg/kg using the formalin model. The percentage inhibition in the second phase, relative to the vehicle control (DMSO/cremophor EL/distilled water = 10:10:80), was calculated.
Each compound was assessed using four doses (0.1, 1, 5, and 10 mg/kg) by intraperitoneal injection.
ICR male mice weighing 23–25 g was purchased from Samtako Korea (Osan, Republic of Korea). ICR mice were housed four per cage in a room with 12 h light–dark cycles. The temperature and relative humidity of the room were maintained at 22 ± 2 °C and 50 ± 5%, respectively. Food and water were available ad libitum. The procedures for animal testing were approved by Medifron Animal Care and Use Committees (Approval number; Medifron 2019-9). Efforts were made to minimize animal suffering and to reduce the number of animals used.
Mice were randomly assigned to five groups (four per group) and single-dose drugs were administered by intraperitoneal injection. The formalin-induced licking paw test was modified from the method described by Dubuisson and Dennis. Each mouse was acclimated to an acrylic observation chamber for at least 30 min before the injection of formalin. Twenty microliters of 2% formalin were injected subcutaneously into the right side of the hind paw. Each mouse was then placed in an individual clear plastic observational chamber (15 × 15 × 15 cm, volume = […] or 3.375 L), and the pain response was recorded for a period of 30 min. The summation of time (in seconds) spent in licking and biting responses of the injected paw during each 5 min block was measured as an indicator of the pain response. The first period (early phase) was recorded 0–5 min after the injection of formalin, and the second period (late phase) was recorded 20–30 min after the injection. The test compound was administered intraperitoneally 30 min before the formalin injection at […]: 0.1, 1, 5, and 10 mg/kg. The vehicle was DMSO/Cremophor EL/distilled water (10/10/80). The data were expressed as the mean ± standard error of the mean (SEM). Statistical analysis was assessed by one-way analysis of variance (ANOVA) with Bonferroni’s post hoc test. Statistical significance was set at p-value < 0.05, with values of p <0.001 considered highly significant.

Serotonin 5-HT2A, sequence (P28223 whole entry): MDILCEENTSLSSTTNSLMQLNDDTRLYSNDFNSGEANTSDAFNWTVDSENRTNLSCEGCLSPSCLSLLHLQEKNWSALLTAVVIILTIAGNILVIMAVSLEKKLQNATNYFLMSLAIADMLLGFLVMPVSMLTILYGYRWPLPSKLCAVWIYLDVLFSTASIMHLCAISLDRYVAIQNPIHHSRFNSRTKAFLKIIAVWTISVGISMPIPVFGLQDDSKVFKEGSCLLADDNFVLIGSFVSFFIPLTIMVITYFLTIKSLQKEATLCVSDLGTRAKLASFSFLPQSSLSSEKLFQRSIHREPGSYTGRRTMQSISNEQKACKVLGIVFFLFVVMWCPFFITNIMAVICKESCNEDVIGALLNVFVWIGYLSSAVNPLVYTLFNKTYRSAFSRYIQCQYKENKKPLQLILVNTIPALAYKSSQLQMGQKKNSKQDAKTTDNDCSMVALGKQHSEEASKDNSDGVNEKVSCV
T4 sequence (P31645 whole entry): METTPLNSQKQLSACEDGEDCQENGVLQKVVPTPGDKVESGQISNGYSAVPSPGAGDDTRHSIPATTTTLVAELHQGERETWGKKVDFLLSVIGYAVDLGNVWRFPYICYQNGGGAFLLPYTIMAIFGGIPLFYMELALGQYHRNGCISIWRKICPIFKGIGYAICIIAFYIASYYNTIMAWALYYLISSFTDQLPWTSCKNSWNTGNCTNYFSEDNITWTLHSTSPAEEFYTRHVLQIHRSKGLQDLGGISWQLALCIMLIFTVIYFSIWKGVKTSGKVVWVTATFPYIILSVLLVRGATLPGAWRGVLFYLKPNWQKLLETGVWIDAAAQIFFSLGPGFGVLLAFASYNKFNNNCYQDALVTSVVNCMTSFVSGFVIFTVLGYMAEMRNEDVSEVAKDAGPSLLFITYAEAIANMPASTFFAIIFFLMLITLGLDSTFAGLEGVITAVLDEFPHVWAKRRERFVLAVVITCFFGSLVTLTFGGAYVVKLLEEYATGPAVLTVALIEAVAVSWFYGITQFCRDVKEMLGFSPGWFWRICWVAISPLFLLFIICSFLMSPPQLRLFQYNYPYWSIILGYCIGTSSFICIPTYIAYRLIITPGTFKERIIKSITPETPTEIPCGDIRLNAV
T3 sequence (Q01959 whole entry): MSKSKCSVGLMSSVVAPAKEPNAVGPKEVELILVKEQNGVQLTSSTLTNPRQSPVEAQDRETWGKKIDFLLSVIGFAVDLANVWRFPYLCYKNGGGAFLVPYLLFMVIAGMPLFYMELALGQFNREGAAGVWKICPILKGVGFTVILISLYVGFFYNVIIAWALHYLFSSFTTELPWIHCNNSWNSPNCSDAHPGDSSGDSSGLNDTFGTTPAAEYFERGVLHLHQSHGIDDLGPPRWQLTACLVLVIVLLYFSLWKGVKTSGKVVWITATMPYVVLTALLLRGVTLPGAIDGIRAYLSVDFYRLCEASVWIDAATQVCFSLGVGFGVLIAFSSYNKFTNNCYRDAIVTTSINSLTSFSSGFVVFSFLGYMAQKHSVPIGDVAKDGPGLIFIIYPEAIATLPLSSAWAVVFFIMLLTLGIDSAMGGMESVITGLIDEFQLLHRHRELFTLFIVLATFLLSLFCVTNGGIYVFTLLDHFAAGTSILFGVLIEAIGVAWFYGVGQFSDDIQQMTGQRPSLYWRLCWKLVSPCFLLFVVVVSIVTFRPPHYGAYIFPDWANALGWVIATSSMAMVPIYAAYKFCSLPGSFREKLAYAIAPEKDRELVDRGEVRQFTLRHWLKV
T5 sequence (P14416 whole entry): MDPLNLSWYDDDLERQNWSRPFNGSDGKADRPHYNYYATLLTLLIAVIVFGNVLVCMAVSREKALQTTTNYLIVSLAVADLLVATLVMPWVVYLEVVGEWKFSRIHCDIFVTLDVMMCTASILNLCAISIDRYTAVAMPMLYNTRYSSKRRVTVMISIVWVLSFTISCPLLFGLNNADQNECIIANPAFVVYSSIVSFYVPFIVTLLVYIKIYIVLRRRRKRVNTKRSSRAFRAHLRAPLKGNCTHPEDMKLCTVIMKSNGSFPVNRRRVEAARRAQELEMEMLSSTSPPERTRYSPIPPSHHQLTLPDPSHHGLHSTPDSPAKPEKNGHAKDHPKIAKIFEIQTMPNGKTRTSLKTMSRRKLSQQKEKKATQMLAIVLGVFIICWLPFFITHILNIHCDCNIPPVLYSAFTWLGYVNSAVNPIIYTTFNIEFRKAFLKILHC
T1 sequence (P23975 whole entry): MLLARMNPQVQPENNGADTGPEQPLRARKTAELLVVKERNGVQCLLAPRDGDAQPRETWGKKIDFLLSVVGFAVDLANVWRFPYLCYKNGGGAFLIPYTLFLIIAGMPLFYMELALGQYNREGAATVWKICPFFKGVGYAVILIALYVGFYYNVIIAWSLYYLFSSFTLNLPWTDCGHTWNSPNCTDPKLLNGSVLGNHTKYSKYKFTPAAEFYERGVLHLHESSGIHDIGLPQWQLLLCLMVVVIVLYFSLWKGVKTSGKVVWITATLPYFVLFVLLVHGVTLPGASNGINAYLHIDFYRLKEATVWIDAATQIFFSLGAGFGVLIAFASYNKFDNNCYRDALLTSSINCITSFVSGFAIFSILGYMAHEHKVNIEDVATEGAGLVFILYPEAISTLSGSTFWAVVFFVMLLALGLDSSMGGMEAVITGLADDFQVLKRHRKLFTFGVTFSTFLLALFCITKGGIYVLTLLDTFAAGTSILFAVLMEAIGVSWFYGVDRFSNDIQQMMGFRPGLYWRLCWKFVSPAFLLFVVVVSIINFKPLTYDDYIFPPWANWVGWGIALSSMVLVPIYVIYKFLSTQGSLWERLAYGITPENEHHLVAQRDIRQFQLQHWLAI
hERG, sequence (Q12809 whole entry): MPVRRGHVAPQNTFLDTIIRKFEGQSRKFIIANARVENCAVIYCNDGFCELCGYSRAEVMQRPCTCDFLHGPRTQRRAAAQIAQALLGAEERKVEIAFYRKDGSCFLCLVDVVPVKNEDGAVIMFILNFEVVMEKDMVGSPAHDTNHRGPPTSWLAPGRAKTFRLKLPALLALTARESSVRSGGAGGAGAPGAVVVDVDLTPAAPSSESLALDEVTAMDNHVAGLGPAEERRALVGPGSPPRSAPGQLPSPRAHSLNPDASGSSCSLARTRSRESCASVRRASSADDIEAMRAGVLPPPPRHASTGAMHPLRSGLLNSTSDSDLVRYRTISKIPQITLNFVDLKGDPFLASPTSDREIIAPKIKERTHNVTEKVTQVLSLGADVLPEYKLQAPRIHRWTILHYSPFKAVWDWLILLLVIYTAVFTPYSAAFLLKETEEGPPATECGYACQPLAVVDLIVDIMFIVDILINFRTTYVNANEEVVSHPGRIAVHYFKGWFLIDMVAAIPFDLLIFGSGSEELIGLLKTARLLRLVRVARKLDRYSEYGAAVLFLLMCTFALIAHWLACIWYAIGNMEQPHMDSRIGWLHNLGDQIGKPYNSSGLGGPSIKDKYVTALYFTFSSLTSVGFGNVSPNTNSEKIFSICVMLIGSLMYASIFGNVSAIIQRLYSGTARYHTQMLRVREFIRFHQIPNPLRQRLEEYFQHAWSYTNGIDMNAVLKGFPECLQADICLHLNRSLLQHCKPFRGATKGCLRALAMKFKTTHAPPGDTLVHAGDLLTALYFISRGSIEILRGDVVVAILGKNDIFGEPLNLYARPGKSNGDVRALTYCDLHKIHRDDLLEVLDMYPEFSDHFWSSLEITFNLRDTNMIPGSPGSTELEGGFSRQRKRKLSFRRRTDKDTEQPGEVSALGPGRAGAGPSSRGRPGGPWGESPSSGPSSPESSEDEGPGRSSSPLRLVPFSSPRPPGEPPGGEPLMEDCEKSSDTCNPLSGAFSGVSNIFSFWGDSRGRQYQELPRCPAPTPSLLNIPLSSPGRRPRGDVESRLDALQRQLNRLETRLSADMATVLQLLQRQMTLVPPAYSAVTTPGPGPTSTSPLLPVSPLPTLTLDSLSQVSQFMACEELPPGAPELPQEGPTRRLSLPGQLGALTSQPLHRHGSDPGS
CYP3A4, sequence (P08684 whole entry): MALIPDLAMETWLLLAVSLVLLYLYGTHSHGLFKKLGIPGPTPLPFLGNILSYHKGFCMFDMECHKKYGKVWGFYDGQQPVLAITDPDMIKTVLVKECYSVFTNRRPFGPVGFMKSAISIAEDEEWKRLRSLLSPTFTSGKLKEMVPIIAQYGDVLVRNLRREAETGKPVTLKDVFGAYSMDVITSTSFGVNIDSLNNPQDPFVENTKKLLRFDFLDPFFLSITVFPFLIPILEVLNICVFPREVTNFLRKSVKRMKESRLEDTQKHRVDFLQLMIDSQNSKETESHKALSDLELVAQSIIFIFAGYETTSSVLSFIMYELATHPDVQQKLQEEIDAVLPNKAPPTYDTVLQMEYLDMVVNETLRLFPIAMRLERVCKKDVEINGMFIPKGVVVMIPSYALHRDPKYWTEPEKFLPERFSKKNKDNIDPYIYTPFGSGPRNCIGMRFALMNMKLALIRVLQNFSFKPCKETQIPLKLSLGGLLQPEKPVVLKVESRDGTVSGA

Q: Which results are given for `N#Cc1ccc2[nH]cc(C(=O)NCCN3CCN(c4ccc5ccccc5n4)CC3)c2c1` [Compound 29, 5-Cyano-N-(2-(4-(quinolin-2-yl)piperazin-1-yl)ethyl)-1H-indole-3-carboxamide]?
A: nH (Hill coefficient) ([1]; NET): 0.73; Ki ([1]; NET, Cheng and Prusoff): 380 nM; IC50 ([1]; NET, human recombinant MDCK cells): 380 nM; times more potent at NET compared to desipramine ([1]; ratio of Ki values): 3; IC50 (hERG): ~10000 nM; inhibition at 15 min, 10 µM (CYP3A4): 78%; viability at 18 h, 10 µM (Cytotoxicity assay (MTT)): > 100%; nH (Hill coefficient) (Adrenergic α2A; Adrenergic α2A): 1.02; Ki (Adrenergic α2A; Adrenergic α2A, Cheng and Prusoff): 4110 nM; IC50 (Adrenergic α2A; Adrenergic α2A, human recombinant CHO-Ki cells): 8220 nM; times the activity of reference compound yohimbine (Adrenergic α2A; ratio of Ki values): 0.25; nH (Hill coefficient) ([2]; DAT): 0.88; Ki ([2]; DAT, Cheng and Prusoff): 46 nM; IC50 ([2]; DAT, human recombinant CHO-S cells): 57 nM; times more potent at DAT compared to vanoxerine ([2]; ratio of Ki values): 19; nH (Hill coefficient) ([3]; SERT): 0.84; Ki ([3]; SERT, Cheng and Prusoff): 130 nM; IC50 ([3]; SERT, human recombinant HEK-293 cells): 780 nM; times more potent at SERT compared to fluoxetine ([3]; ratio of Ki values): 13; nH (Hill coefficient) (Serotonin 5-HT2A; Serotonin 5-HT2A): 0.88; Ki (Serotonin 5-HT2A; Serotonin 5-HT2A, Cheng and Prusoff): 150 nM; IC50 (Serotonin 5-HT2A; Serotonin 5-HT2A, human recombinant CHO-Ki cells): 520 nM; times the activity of reference compound ketanserin (Serotonin 5-HT2A; ratio of Ki values): 1.53; nH (Hill coefficient) (Dopamine D2L; Dopamine D2L): 0.86; Ki (Dopamine D2L; Dopamine D2L, Cheng and Prusoff): 1850 nM; IC50 (Dopamine D2L; Dopamine D2L, human recombinant CHO cells): 5540 nM; times the activity of reference compound spiperone (Dopamine D2L; ratio of Ki values): 0.02; ED50 (formalin model; Mus musculus, ip, read-out: ED50 in the second phase of the formalin model): 0.78 mg/kg; activity in the first phase of the formalin model (formalin model; mice, intraperitoneal, first phase): relatively weak
